Earlier results as cited in patent publication US20120189694A1, “CO-PRECIPITATE COMPRISING A PHOSPHODIESTERASE-5 INHIBITOR (PDE-5-INHIBITOR) AND A […] COMPATIBLE CARRIER, PRODUCTION AND USE THEREOF” (ratiopharm GmbH, priority 2009, published 2012).

Legend:
[1] = according to WO 01/08687
[2] = in vivo

solubility in water [1]: about 2 μg/ml
Compound: CN1CC(=O)N2[C@H](c3ccc4c(c3)OCO4)c3[nH]c4ccccc4c3C[C@@H]2C1=O [tadalafil, (6R,12aR)-6-(1,3-benzodioxol-5-yl)-2-methyl-1,2,3,4,6,7,12,12a-octahydropyrazino[2′,1′:6,1]pyrido[3,4-b]indole-1,4-dione]
time the action lasts [2]: up to 36 hours
